From patent US20240299303A1, “NANOSTRUCTURE OR MICROSTRUCTURE AND METHOD FOR PRODUCING SAME” (The University of Tokyo, priority 2021, published 2024)

What was measured:
Format in all cases: physicochemical
[1] = Introduction of rhodamine B into uncrosslinked nanosheets (fluorescence microscope); conditions: rhodamine B 1,000 μg/mL aqueous solution, shaken room temperature 24 hours
Method: 100 Microliters of an aqueous solution (1,000 μg/mL) of rhodamine B was added to 90 mL of the uncrosslinked nanosheet dispersion (sample IT-142) obtained in Comparative Example 1, and the mixture was shaken at room temperature for 24 hours. […] The results are shown in FIG. 11(A) and FIG. 11(B), respectively. The crystal structures of nanosheets were able to be observed with the phase-contrast microscope.

[2] = Introduction of molecules into crosslinked body of porous microstructural body (UV-visible, supernatant); conditions: adsorption from aqueous dispersion; Example 10
Method: A low-molecular weight compound was added, and caused to adsorb, to the aqueous dispersion of the porous γ-PPG4k-Plate crosslinked body, and then the porous γ-PPG4k-Plate crosslinked body was sedimented by centrifugation. The concentration of the low-molecular weight compound present in the supernatant liquid obtained at that time was determined by a UV-visible spectral method. Thus, the amount of the low-molecular weight compound adsorbing to the porous γ-PPG4k-Plate crosslinked body was determined.

[3] = Introduction of rhodamine B into crosslinked nanosheets (fluorescence microscope); conditions: rhodamine B 100 μg/mL aqueous solution, shaken room temperature 24 hours, diluted fivefold
Method: 900 Microliters of an aqueous solution (100 μg/mL) of rhodamine B was added to 50 mg of the nanosheet dispersion-1 (sample IT-162) obtained in Example 1, and the mixture was shaken at room temperature for 24 hours. […] The results are shown in FIG. 10(A) and FIG. 10(B), respectively. The crystal structures of nanosheets were able to be observed with the phase-contrast microscope.

[4] = Introduction of compounds into nanosheets, absorbance of supernatant after centrifugation; conditions: for introduction amount relative to the weight of the nanosheets: Examples 4-8; for introduction amount relative to the weight of the nanosheets / Weight of introduced compound/weight of nanosheets: crosslinked β-cyclodextrin nanosheets; for Weight of introduced compound/weight of nanosheets: Table 1; for Concentration of introduced compound before introduction: in nanosheet dispersion, defined in consideration of dilution with moisture in the dispersion; for Concentration of introduced compound before introduction / Concentration of introduced compound after introduction: nanosheets 43 mg/mL (Examples 4-6) or 17 mg/mL (Examples 7-8); for amount of compound introduced into the nanosheets (reduction in concentration before and after introduction): nanosheets 43 mg/mL (Examples 4-6) or 17 mg/mL (Example 8); for Concentration of introduced compound after introduction: supernatant after shaking at room temperature 48 hours and centrifugation, absorbance
Method: 700 Microliters of an aqueous solution (300 μg/mL) of 5-fluorouracil was added to 500 mg of the nanosheet dispersion-1 obtained in Example 1, and the mixture was shaken at room temperature for 48 hours. The nanosheet dispersion having introduced thereinto 5-fluorouracil was centrifuged (at 12,000 rpm for 10 minutes), and the supernatant liquid was collected.
The introduction amount of 5-fluorouracil was determined by the same process as that of Example 4 except that a concentration-absorbance calibration curve was produced at a predetermined wavelength (λ=270 nm).
700 Microliters of an aqueous solution (100 μg/mL) of hydrocortisone was added to 500 mg of the nanosheet dispersion-1 obtained in Example 1, and the mixture was shaken at room temperature for 48 hours. The nanosheet dispersion having introduced thereinto hydrocortisone was centrifuged (at 12,000 rpm for 10 minutes), and the supernatant liquid was collected.
The introduction amount of hydrocortisone was determined by the same process as that of Example 4 except that a concentration-absorbance calibration curve was produced at a predetermined wavelength (λ250 nm).
500 Microliters of an aqueous solution (30 μg/mL) of betamethasone was added to 100 mg of the nanosheet dispersion-1 obtained in Example 1, and the mixture was shaken at room temperature for 48 hours. The nanosheet dispersion having introduced thereinto betamethasone was centrifuged (at 12,000 rpm for 10 minutes), and the supernatant liquid was collected.
The introduction amount of betamethasone was determined by the same process as that of Example 4 except that a concentration-absorbance calibration curve was produced at a predetermined wavelength (λ=250 nm).
500 Microliters of an aqueous solution (30 μg/mL) of menadione was added to 100 mg of the nanosheet dispersion-1 obtained in Example 1, and the mixture was shaken at room temperature for 48 hours. The nanosheet dispersion having introduced thereinto menadione was centrifuged (at 12,000 rpm for 10 minutes), and the supernatant liquid was collected.
The introduction amount of menadione was determined by the same process as that of Example 4 except that a concentration-absorbance calibration curve was produced at a predetermined wavelength (λ=250 nm).

[5] = Introduction of molecules into porous nanosheet crosslinked body (UV-visible, supernatant); conditions: adsorption from aqueous dispersion; Example 9
Method: A low-molecular weight compound was added, and caused to adsorb, to the aqueous dispersion of the porous γ-plu108-NS crosslinked body, and then the porous γ-plu108-NS crosslinked body was sedimented by centrifugation. The concentration of the low-molecular weight compound present in the supernatant liquid obtained at that time was determined by a UV-visible spectral method. Thus, the amount of the low-molecular weight compound adsorbing to the porous γ-plu108-NS crosslinked body was determined.

SMILES | introduction into the porous γ-PPG4k-Plate crosslinked body [2] | introduction amount relative to the weight of the nanosheets [4] | Weight of introduced compound/weight of nanosheets [4] | Concentration of introduced compound before introduction [4] | amount of compound introduced into the nanosheets (reduction in concentration before and after introduction) [4] | Concentration of introduced compound after introduction [4] | also measured
CCN(CC)c1ccc2c(-c3ccccc3C(=O)O)c3ccc(=[N+](CC)CC)cc-3oc2c1.[Cl-] [rhodamine B] | not introduced | – | – | – | – | – | fluorescent coloring in the crystal structures (rhodamine B introduction) [1]: almost no fluorescent coloring was observed; fluorescent coloring in the crystal structures (rhodamine B introduction) [3]: fluorescent coloring was observed
C[C@]12CCC(=O)C=C1CC[C@@H]1[C@@H]2[C@@H](O)C[C@@]2(C)[C@H]1CC[C@]2(O)C(=O)CO [Hydrocortisone, hydrocortisone] | – | 0.08 wt % | 0.08% | 61000 ng/mL | 35 µg/mL | 26000 ng/mL | –
CCCCC/C=C\C/C=C\CCCCCCCC(=O)O [linoleic acid] | – | – | – | – | – | – | ratio of the weight of the low-molecular weight compound to the total sum of the weights of the compound and the porous γ-PPG4k-Plate crosslinked body [2]: 0.9 wt %; ratio of the weight of the low-molecular weight compound to the total sum of the weights of the compound and the porous γ-plu108-NS crosslinked body [5]: 5.3 wt %
O=C(O)CCCC[C@@H]1SC[C@@H]2NC(=O)N[C@@H]21 [biotin] | not introduced | – | – | – | – | – | –
O=c1[nH]cc(F)c(=O)[nH]1 [5-Fluorouracil, 5-fluorouracil] | – | 0.10 wt % | 0.10% | 183000 ng/mL | 45 µg/mL | 138000 ng/mL | –
O=c1ccc2ccccc2o1 [coumarin] | – | – | – | – | – | – | ratio of the weight of the low-molecular weight compound to the total sum of the weights of the compound and the porous γ-PPG4k-Plate crosslinked body [2]: 0.6 wt %; ratio of the weight of the low-molecular weight compound to the total sum of the weights of the compound and the porous γ-plu108-NS crosslinked body [5]: 0.5 wt %

Further lines, with some results ahead:

introduction into the porous γ-PPG4k-Plate crosslinked body [2] | introduction amount relative to the weight of the nanosheets [4] | Weight of introduced compound/weight of nanosheets [4] | Concentration of introduced compound before introduction [4] | amount of compound introduced into the nanosheets (reduction in concentration before and after introduction) [4] | Concentration of introduced compound after introduction [4] | SMILES | also measured
not introduced | – | – | – | – | – | CCN[C@H]1C[C@H](C)S(=O)(=O)c2sc(S(N)(=O)=O)cc21 [dorzolamide] | –
– | 0.09 wt % | 0.09% | 25000 ng/mL | 15 µg/mL | 10000 ng/mL | CC1=CC(=O)c2ccccc2C1=O [Menadione, menadione] | –
not introduced | – | – | – | – | – | O=C(O)c1cccnc1 [nicotinic acid] | –
